From US20240025908A1, “COMPOUND USED AS KINASE INHIBITOR AND USE THEREOF” (TYK MEDICINES, INC., priority 2020, published 2024)
pIC50: −log10 of the molar value. Read-outs that look alike come from different tables or passages of the source.

Columns and labels:
ROS1 = ROS1 (Homo sapiens (Human), UniProt P08922); assay: Radio-tagged HotSpot kinase assay, ROS1; format: biochemical
Method: (§1) Inhibition of protein kinase activity by compounds was carried out on the Radio-tagged HotSpot kinase experimental platform of Reaction Biology Corporation. Fresh reaction solution (20 mM TIEPESpH 7.5, 10 mM MgCl2, 1 mM EGTA, 0.02% Brij35, 0.02 mg/ml BSA, 0.1 mM Na3VO4, 2 mM DTT, […]) containing corresponding substrates was prepared, cofactor and kinase to be tested were added into the above solution and mixed gently. Echo550 pipetting system was used to add the test compound DMSO solution to each well (the blank control group was added with the corresponding volume of DMSO), then 33P-ATP (with a final specific activity of 0.01 μCi/μL) was added to start the reaction. The reaction solution was incubated at room temperature for 120 minutes. Transferred the incubated reaction solution to P81 ion exchange chromatographic paper (Whatman #3698-915), eluted with […] phosphoric acid solution, and the amount of radioactive phosphorylated substrate remaining on the chromatographic paper was detected.

ROS1 (G2032R) = ROS1 (G2032R) (Homo sapiens (Human), UniProt P08922, G2032R); assay: Radio-tagged HotSpot kinase assay, ROS1 (G2032R); format: biochemical
Chain of ROS1 (G2032R) (P08922 28-2347 G2032R): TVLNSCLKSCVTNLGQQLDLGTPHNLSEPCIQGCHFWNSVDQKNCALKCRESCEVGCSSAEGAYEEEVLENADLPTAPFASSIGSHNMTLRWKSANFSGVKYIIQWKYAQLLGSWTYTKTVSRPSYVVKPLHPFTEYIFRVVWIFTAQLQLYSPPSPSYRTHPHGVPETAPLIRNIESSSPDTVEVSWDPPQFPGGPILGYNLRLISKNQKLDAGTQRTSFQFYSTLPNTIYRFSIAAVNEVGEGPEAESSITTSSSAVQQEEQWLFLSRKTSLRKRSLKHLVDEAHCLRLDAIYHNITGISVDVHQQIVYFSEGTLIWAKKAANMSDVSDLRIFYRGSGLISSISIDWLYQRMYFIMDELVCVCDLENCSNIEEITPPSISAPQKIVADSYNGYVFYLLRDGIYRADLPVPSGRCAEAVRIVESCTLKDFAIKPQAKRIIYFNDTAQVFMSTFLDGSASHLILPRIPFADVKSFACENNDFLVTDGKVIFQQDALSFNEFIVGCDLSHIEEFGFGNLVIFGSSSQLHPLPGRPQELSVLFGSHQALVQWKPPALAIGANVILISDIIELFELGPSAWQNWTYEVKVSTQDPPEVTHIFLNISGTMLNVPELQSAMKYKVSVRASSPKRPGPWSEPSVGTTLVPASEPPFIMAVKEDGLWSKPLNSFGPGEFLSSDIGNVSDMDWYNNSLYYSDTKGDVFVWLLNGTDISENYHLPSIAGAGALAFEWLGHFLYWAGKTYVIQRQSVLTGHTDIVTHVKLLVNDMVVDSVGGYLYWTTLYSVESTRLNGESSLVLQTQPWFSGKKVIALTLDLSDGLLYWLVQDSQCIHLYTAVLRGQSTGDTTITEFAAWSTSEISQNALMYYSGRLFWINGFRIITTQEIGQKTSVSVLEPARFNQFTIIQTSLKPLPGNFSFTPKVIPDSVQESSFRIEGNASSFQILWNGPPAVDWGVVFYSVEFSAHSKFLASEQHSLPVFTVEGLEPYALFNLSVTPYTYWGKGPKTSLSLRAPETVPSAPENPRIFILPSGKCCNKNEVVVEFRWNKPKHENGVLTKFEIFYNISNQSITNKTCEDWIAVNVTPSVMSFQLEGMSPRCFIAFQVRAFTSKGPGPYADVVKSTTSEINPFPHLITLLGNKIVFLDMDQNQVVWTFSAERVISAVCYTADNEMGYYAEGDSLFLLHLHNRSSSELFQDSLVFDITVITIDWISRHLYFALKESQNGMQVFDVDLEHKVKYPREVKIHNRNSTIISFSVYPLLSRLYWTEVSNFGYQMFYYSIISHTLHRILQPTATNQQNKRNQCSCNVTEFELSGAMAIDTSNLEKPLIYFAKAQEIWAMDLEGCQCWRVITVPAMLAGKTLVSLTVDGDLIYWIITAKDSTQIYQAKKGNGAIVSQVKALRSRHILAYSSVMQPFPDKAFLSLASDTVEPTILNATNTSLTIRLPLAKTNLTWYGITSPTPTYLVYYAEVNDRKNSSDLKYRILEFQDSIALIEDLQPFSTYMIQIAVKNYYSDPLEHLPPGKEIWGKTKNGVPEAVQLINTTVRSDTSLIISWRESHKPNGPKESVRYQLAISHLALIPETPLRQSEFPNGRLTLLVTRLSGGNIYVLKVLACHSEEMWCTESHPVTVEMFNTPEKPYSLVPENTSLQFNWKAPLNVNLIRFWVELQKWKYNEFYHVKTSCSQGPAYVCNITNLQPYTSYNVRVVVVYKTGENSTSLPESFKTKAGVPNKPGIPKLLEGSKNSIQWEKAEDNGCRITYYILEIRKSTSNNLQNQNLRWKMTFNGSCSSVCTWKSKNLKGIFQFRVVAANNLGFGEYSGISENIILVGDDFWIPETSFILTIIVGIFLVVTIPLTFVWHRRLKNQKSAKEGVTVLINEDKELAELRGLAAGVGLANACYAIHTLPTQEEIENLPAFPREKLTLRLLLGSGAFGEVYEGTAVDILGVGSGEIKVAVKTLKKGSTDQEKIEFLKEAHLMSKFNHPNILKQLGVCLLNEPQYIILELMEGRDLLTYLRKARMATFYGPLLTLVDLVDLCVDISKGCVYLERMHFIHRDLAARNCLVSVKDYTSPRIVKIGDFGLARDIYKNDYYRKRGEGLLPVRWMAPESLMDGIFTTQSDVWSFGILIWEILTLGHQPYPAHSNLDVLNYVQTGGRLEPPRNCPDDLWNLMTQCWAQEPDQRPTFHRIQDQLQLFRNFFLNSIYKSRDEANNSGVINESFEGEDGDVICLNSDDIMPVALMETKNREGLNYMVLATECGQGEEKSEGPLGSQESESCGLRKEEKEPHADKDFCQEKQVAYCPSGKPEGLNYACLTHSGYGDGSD
Method: as §1

TRKA = TRKA (Homo sapiens (Human), UniProt P04629); assay: Radio-tagged HotSpot kinase assay, TRKA; format: biochemical
Chain of TRKA (P04629 33-796): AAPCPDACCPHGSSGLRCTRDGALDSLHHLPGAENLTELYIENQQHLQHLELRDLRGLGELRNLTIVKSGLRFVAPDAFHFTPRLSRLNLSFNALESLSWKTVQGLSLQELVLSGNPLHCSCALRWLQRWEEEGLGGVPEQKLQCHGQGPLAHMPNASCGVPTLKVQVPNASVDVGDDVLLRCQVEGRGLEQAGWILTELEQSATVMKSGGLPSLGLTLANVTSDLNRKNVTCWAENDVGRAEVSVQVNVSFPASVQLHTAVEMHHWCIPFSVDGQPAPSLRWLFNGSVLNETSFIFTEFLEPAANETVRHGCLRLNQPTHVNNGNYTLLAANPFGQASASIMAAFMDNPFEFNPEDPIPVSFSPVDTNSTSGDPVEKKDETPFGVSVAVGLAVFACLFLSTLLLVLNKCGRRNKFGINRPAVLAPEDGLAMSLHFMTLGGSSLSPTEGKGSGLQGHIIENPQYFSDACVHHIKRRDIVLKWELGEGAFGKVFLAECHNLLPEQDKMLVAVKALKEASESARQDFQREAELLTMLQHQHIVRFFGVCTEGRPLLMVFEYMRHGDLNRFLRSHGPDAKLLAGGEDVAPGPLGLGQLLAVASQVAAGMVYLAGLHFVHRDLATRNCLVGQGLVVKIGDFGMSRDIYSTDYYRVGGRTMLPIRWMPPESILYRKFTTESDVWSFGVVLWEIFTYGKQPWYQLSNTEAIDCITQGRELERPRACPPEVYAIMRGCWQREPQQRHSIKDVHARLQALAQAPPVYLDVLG
Method: as §1

TRKA (G677C) = TRKA (G677C) (Homo sapiens, UniProt P04629, G667C); assay: Radio-tagged HotSpot kinase assay, TRKA (G677C); format: biochemical; details: for IC50: read-out: TRKA (G677C) (IC50/nM)
Chain of TRKA (G677C) (P04629 33-796 G667C limits assumed): as the sequence (P04629 33-796) above, with G635C counted along it
Method: as §1

ALK = ALK (Homo sapiens (Human), UniProt Q9UM73); assay: Radio-tagged HotSpot kinase assay, ALK; format: biochemical
Chain of ALK (Q9UM73 19-1620): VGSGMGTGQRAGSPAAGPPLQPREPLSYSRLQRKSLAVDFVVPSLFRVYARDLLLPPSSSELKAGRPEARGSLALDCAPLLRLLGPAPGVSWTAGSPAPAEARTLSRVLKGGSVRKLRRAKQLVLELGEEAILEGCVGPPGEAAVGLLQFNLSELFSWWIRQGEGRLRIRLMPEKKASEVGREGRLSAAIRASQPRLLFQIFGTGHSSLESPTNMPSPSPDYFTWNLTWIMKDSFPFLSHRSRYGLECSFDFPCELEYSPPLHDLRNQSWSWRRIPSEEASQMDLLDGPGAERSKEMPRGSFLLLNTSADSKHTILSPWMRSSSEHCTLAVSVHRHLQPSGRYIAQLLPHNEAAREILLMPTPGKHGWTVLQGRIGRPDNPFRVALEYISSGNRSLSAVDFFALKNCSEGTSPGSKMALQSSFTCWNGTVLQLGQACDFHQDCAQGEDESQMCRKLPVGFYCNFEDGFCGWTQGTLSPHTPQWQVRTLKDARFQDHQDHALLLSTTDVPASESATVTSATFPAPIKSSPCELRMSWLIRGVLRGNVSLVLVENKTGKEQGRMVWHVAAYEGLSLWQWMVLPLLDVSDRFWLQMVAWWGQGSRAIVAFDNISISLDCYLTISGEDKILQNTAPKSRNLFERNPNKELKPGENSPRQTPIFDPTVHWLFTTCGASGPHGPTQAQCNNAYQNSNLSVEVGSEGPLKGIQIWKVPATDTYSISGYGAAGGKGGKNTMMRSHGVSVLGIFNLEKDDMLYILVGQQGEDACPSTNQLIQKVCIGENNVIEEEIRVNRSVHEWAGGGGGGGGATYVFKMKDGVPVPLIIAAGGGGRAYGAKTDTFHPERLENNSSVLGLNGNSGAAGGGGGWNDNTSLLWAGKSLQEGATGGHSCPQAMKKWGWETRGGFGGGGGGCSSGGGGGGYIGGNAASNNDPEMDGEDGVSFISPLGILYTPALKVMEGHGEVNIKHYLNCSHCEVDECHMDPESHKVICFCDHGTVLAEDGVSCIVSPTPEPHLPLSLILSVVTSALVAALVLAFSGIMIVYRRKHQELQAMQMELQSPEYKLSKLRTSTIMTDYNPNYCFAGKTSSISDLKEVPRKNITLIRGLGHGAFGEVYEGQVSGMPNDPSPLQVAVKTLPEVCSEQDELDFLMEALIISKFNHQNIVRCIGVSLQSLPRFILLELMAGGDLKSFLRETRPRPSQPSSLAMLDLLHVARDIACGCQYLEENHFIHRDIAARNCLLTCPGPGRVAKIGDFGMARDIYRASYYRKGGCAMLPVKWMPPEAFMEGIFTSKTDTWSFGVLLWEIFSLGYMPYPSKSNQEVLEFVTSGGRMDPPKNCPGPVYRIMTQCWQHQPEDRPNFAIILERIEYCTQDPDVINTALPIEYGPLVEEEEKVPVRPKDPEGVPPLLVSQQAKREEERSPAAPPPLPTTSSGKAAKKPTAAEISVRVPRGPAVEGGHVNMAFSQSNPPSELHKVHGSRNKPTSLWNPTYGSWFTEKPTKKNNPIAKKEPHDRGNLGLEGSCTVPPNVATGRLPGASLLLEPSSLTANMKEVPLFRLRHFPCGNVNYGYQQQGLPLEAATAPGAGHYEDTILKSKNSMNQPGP
Method: as §1

ALK (G1202R) = ALK (G1202R) (Homo sapiens (Human), UniProt Q9UM73, G1202R); assay: Radio-tagged HotSpot kinase assay, ALK (G1202R); format: biochemical
Chain of ALK (G1202R) (Q9UM73 19-1620 G1202R): as the sequence (Q9UM73 19-1620) above, with G1184R counted along it
Method: as §1

Ba/F3-CD74-ROS1-G2032R = assay: Inhibition of cell proliferation (CellTiter-Glo), Ba/F3-CD74-ROS1-G2032R; format: cell-based; details: 72 hours
Method: (§2) The experiment of inhibiting cell proliferation by compounds was carried out in Hefei Zhongkeprecedo Biomedical Technology Co., Ltd. The Ba/F3 engineered cell line stably transfected with different kinase genes was recovered with RPMI 1640 medium (Biological Industries, Israel)+10% fetal bovine serum (Biological Industries, Israel)+1% double antibody (Penicillin Streptomycin solution, Coring, USA) and cultivated two generations. The logarithmic growth phase cell suspension was taken, and 2000 cells/well were inoculated on 96-well white cell culture plate (Corning 3917, NY, USA) with a volume of 95 μL per well. 5 μL of 20×DMSO solution of the compound to be tested was added into the culture plate containing 95 μL of cell suspension. The blank control group was added with corresponding volume of DMSO, mixed well, and incubated in a 5% CO2 incubator at 37° C. for 72 hours. CellTiter-Glo was used to detect cell viability.

Ba/F3-LMNA-NTRK1-G595R = assay: Inhibition of cell proliferation (CellTiter-Glo), Ba/F3-LMNA-NTRK1-G595R; format: cell-based; details: 72 hours
Method: as §2

Ba/F3-TEL-ALK-G1202R = assay: Inhibition of cell proliferation (CellTiter-Glo), Ba/F3-TEL-ALK-G1202R; format: cell-based; details: 72 hours
Method: as §2

[1] = test system: Ba/F3-CD74-ROS1-G2032R cells; assay: In vivo efficacy study, subcutaneous Ba/F3-CD74-ROS1-G2032R tumor; parameters: species or system BALB/c nude mice; details: 20 mg/kg P.O. BID × 2 weeks
Method: Cell culture: Ba/F3-CD74-ROS1-G2032R cell line was cultured with 1640 medium (Biological Industries)+10% fetal bovine serum (BI)+1% double antibody (Penicillin Streptomycin solution, Corning, USA) at 37° C. with 5% CO2. Two passages were performed for one week. When the cell saturation was 80%-90% and the number reached the required level, the cells were collected, counted and inoculated.
Animals: BALB/c nude mice, female, 6-8 weeks of age, weighing 15-20 g. A total of 6 mice were required, provided by Beijing Vital River Laboratory Animal Technology Co., Ltd.
Tumor inoculation: 0.2 ml (2×10^6) Ba/F3-CD74-ROS1-G2032R cells (plus stromal gel, volume ratio 1:1) were inoculated subcutaneously on the right posterior dorsum of each mouse, and group dosing was started when the average tumor volume reached about 150-200 mm^3.
Experimental index: Tumor volume and body weight were measured twice a week. Tumor volume was measured by vernier calipers with the formula TV=0.5 a×b2, wherein a is the long diameter of the tumor and b is the short diameter of the tumor.

Chain of ROS1 (P08922 28-2347): as the sequence (P08922 28-2347 G2032R) above, with R2005G counted along it

IC50 (ROS1) | IC50 (ROS1 (G2032R)) | IC50 (TRKA) | IC50 (TRKA (G677C)) | IC50 (ALK) | IC50 (ALK (G1202R)) | SMILES | IC50 (Ba/F3-CD74-ROS1-G2032R) | IC50 (Ba/F3-LMNA-NTRK1-G595R) | IC50 (Ba/F3-TEL-ALK-G1202R) | pIC50 (TRKA (G677C)) | Tumor Volume ([1]; 0 days) | Tumor Volume ([1]; 4 days) | Tumor Volume ([1]; 7 days) | Tumor Volume ([1]; 11 days) | Tumor Volume ([1]; 14 days)
< 0.5 nM | 0.5 to 5 nM | < 0.5 nM | 0.5 to 5 nM | 0.5 to 5 nM | 5 to 50 nM | COc1c(F)cc(F)cc1[C@@H](C)Nc1ccn2ncc(C3=NC(=O)C(C)(C)N3)c2n1 [Example 20] | – | – | – | – | – | – | – | – | –
0.5 to 5 nM | 5 to 50 nM | 0.5 to 5 nM | 5 to 50 nM | 50 to 500 nM | 50 to 500 nM | CCCOC(=O)/N=C(\N)c1cnn2ccc(N[C@H](C)c3cc(F)cc(F)c3F)nc12 [Example 11] | – | – | – | – | – | – | – | – | –
0.5 to 5 nM | 5 to 50 nM | 0.5 to 5 nM | 5 to 50 nM | 5 to 50 nM | 50 to 500 nM | C[C@@H](Nc1ccn2ncc(C3=NOCCN3)c2n1)c1cc(F)cc(C(F)(F)F)c1F [Example 19] | – | – | – | – | – | – | – | – | –
< 0.5 nM | 0.5 to 5 nM | < 0.5 nM | 0.5 to 5 nM | 5 to 50 nM | 50 to 500 nM | C[C@@H](Nc1ccn2ncc(C3=NC(=O)C(C)(C)N3)c2n1)c1cc(F)cnc1OCC(F)(F)F [Example 23] | – | – | – | – | – | – | – | – | –
0.5 to 5 nM | 5 to 50 nM | 0.5 to 5 nM | 5 to 50 nM | 50 to 500 nM | 50 to 500 nM | C[C@@H](Nc1ccn2ncc(OC3=NCC(C)(C)N3)c2n1)c1cc(F)cc(F)c1F [Example 15] | – | – | – | – | – | – | – | – | –
0.5 to 5 nM | 5 to 50 nM | 0.5 to 5 nM | 5 to 50 nM | 5 to 50 nM | 5 to 50 nM | COc1ccc(F)cc1[C@@H](C)Nc1ccn2ncc(NC3=NC(C)(C)CN3)c2n1 [Example 12] | – | – | – | – | – | – | – | – | –
< 0.5 nM | 0.5 to 5 nM | < 0.5 nM | 0.5 to 5 nM | 0.5 to 5 nM | 5 to 50 nM | CCOc1ncc(F)cc1[C@@H](C)Nc1ccn2ncc(C3=NOCCN3)c2n1 [Example 22] | – | – | – | – | – | – | – | – | –

Further lines, the compound ahead of its results:

SMILES | IC50 (ROS1) | IC50 (ROS1 (G2032R)) | IC50 (TRKA) | IC50 (TRKA (G677C)) | IC50 (ALK) | IC50 (ALK (G1202R)) | IC50 (Ba/F3-CD74-ROS1-G2032R) | IC50 (Ba/F3-LMNA-NTRK1-G595R) | IC50 (Ba/F3-TEL-ALK-G1202R) | pIC50 (TRKA (G677C)) | Tumor Volume ([1]; 0 days) | Tumor Volume ([1]; 4 days) | Tumor Volume ([1]; 7 days) | Tumor Volume ([1]; 11 days) | Tumor Volume ([1]; 14 days)
C[C@@H](Nc1ccn2ncc(C3=NC(=O)C(C)(C)N3)c2n1)c1cc(F)ccc1OC(F)F [Example 6] | < 0.5 nM | < 0.5 nM | < 0.5 nM | < 0.5 nM | 0.5 to 5 nM | 5 to 50 nM | 24.1 nM | 13.4 nM | 110 nM | – | – | – | – | – | –
C[C@@H](Nc1ccn2ncc(C3=NOCCN3)c2n1)c1cc(F)ccc1OC(F)(F)F [Example 26] | < 0.5 nM | 0.5 to 5 nM | < 0.5 nM | – | 0.5 to 5 nM | 5 to 50 nM | 35.2 nM | 11.2 nM | 100 nM | 8.30 to 9.30 | – | – | – | – | –
C[C@@H](Nc1ccn2ncc(C3=NN=CC(C)(C)N3)c2n1)c1cc(F)cc(F)c1F [Example 5] | 0.5 to 5 nM | 5 to 50 nM | 0.5 to 5 nM | 5 to 50 nM | 5 to 50 nM | 5 to 50 nM | – | – | – | – | – | – | – | – | –
C[C@@H](Nc1ccn2ncc(C3=NC(=O)C(C)(C)N3)c2n1)c1cc(F)cc(F)c1F [Example 8] | < 0.5 nM | < 0.5 nM | < 0.5 nM | < 0.5 nM | 0.5 to 5 nM | 5 to 50 nM | – | – | – | – | – | – | – | – | –
C[C@@H](Nc1ccn2ncc(C3=NOCC(C)(C)N3)c2n1)c1cc(F)cc(F)c1F [Example 4] | < 0.5 nM | 0.5 to 5 nM | < 0.5 nM | 0.5 to 5 nM | 0.5 to 5 nM | 5 to 50 nM | – | – | – | – | 167.31 mm^3 | 216.42 mm^3 | 292.24 mm^3 | 375.67 mm^3 | 688.91 mm^3
COc1ccc(F)cc1[C@@H](C)Nc1ccn2ncc(NC3=NC(C)(C)CO3)c2n1 [Example 1] | 0.5 to 5 nM | 0.5 to 5 nM | 0.5 to 5 nM | 0.5 to 5 nM | 0.5 to 5 nM | 5 to 50 nM | – | – | – | – | – | – | – | – | –
